Measured values published in patent publication US11390613B2, “Azole analogues and methods of use thereof” (UNIVERSITY OF CONNECTICUT, priority 2017, dated 2022).
Values after ≈ are worked out from the molar mass of the structure shown. Where two headings read alike, the source gives them in different places.

How the values were obtained:
[1] = system: Gli1 mRNA levels in the murine BCC cell line ASZ-001 (Hh pathway); test: Hh pathway inhibition: endogenous Gli1 mRNA (qRT-PCR) in ASZ-001 cells; assay type: cell-based; conditions: Mus musculus
Experimental: Initial Hh inhibition studies.
General Information for Cell Culture Studies Protocols for general cell culture, qPCR, and Hh inhibition ASZ cells are as previously described.
General Information for Cell Culture Studies. Protocols for general cell culture, qPCR, and Hh inhibition ASZ cells are as previously described.
Gene Expression Assay Protocol (ASZ-001): Cells are seeded (10,000 cells per well; 100 μL total volume per well) in a 96-well tissue culture plate. After 24 h of incubation (37° C., 5% CO2), growth media was removed and replaced with low FBS media. Cells were incubated for an additional 24 h. After this time, DMSO (vehicle control) and liposomes (Aqueous Solution) were added to the wells. […]
Rt-PCR Protocol: Following treatment and incubation periods, both RNA extraction and cDNA synthesis were performed using a TaqMan Cells-to-CT (fast) kit. cDNA synthesis utilized a BioRad MyCycler and was programmed according to the manufacturer's instructions. Quantitative RT-PCR was performed on an ABI 7500 system and made use of the following TaqMan Gene Expression Probes: mouse ActB (Mm00607939_s1) and mouse Gli1 (Mm00494654_m1). Relative gene expression levels were computed via ΔΔCT method using GraphPad Prism. Corresponding IC50 values were calculated as mean±SEM for at least three separate experiments performed in triplicate.

[2] = target: P-glycoprotein (P-gp) (Homo sapiens, UniProt P08183); test: P-glycoprotein (P-gp) efflux; assay type: in vitro ADME
Sequence of P-glycoprotein (P-gp) (P08183 whole entry): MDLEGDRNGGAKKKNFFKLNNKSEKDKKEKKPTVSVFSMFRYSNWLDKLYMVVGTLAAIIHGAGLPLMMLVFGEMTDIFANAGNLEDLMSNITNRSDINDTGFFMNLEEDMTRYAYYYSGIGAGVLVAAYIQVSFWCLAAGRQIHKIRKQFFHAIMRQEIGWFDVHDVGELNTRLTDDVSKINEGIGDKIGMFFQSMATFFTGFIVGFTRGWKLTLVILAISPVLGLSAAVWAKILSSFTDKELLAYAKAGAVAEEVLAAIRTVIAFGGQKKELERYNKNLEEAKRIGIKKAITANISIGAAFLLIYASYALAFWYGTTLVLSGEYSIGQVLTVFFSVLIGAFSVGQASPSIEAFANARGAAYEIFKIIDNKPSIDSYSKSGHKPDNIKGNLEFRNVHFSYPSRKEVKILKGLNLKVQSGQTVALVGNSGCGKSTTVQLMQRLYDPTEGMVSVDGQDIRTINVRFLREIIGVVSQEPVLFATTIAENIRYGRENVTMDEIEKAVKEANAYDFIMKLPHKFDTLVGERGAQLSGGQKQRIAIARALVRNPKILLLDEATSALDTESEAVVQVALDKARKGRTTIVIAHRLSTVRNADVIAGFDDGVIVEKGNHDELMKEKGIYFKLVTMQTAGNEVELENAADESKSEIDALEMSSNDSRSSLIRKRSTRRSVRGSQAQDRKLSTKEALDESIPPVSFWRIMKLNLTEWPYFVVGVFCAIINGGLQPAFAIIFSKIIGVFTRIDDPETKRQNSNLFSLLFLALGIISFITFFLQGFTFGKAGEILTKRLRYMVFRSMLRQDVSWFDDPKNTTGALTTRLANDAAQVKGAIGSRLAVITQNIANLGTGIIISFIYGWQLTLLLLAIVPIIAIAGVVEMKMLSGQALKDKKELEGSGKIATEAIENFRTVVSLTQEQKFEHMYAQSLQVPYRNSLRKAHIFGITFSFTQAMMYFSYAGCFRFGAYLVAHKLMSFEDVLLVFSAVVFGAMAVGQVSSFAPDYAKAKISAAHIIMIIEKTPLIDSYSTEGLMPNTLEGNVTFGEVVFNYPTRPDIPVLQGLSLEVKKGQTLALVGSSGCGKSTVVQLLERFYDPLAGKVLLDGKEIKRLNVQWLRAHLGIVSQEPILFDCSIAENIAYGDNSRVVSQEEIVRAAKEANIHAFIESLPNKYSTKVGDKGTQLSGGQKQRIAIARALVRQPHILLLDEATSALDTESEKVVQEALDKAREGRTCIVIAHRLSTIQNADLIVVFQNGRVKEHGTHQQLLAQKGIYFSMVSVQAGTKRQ
Source text: (§1) Preliminary In Vitro Pharmacokinetic Assays.

[3] = system: Gli1 mRNA levels in the murine BCC cell line ASZ-001 (Hh pathway); conditions: background, read-out: IC50 (Hh signaling); cited from earlier work
[4] = Metabolic half-life and clearance (HLM); assay type: in vitro ADME
[5] = Parallel artificial membrane permeability assay (PAMPA); assay type: in vitro ADME; conditions: passive permeability
Source text: as §1

[6] = target: T1, BCRP (Homo sapiens, UniProt Q9UNQ0); test: BCRP efflux; assay type: in vitro ADME; conditions: Table 9
T1 sequence (Q9UNQ0 1-655): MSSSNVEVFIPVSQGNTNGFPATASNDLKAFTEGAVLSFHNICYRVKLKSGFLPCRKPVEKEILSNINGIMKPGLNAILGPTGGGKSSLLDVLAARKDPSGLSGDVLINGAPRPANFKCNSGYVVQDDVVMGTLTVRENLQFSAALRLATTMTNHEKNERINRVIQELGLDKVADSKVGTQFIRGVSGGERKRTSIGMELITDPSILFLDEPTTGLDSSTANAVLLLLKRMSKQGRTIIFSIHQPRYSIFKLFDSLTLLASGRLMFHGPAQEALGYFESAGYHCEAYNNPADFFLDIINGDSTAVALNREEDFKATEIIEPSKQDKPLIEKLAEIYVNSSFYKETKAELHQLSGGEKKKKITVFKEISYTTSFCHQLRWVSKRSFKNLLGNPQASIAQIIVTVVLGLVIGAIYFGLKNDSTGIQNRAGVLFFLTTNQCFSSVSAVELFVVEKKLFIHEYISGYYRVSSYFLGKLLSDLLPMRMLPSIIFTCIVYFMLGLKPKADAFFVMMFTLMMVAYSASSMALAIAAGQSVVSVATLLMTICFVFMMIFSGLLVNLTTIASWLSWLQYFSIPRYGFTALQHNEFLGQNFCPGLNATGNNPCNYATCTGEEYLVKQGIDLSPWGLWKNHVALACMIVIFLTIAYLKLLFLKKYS
Source text: as §1

[7] = system: Hh pathway; conditions: background; read-out: IC50 (Hh pathway inhibitor); cited from earlier work
[8] = Solubility

Compound	IC50 ([1]; ASZ001, 48 h) [µM]	P-gp (Efflux) ([2]; Table P1)	IC50 [3] [nM]	IC50 ([1]; ASZ001, 48 h, read-out: IC50 (μM) 48 h) [µM]	IC50 ([1]; ASZ001, 96 h, read-out: IC50 (μM) 96 h) [µM]	T1/2 (HLM, min) [4] [min]	PAMPA [5]	BCRP [6]	P-gp ([2]; Table 9)	IC50 [7] [nM]	Solubility [8] [µM]
CC[C@@H]([C@H](C)O)n1ncn(-c2ccc(N3CCN(c4ccc(OC[C@@H]5CO[C@@](Cn6cncn6)(c6ccc(F)cc6F)C5)cc4)CC3)cc2)c1=O [PSZ, Posaconazole]	0.5 ± 0.1	substrate for P-gp	540								
CCC(C)n1ncn(-c2ccc(N3CCN(c4ccc(OCC5COC(Cn6cncn6)(c6ccc(Cl)cc6Cl)O5)cc4)CC3)cc2)c1=O (centres unmarked) [ITZ, Itraconazole, reference compound]				0.11 ± 0.025	0.14 ± 0.012	27.0 ± 6.2	Moderate	No	No	690	0.8 (≈ 0.565 µg/mL)
